Source: PMC8703873, “Structure and Activity of a Selective Antibiofilm Peptide SK-24 Derived from the NMR Structure of Human Cathelicidin LL-37” (Pharmaceuticals, 2021)
Values after ≈ are worked out from the molar mass of the structure shown. Like-named read-outs stand apart in the source and are kept apart here. No end group written: not given here.

Experiments:
Human red blood cells = assay: Hemolytic assay; type: cell-based; conditions: 1 h
Protocol: Human red blood cells (hRBCs, the UNMC Blood Bank) were washed three to five times with saline (Fisher Scientific, Waltham, MA, USA) at 800 g for 10 min each time, until the supernatant was clear. The supernatant was discarded, and hRBCs were suspended in saline at a final density of 2%. Ninety microliters of hRBC suspensions were added to each well of 96-well plates containing 10 µL of 10× serially diluted peptides. After incubation at 37 °C for 1 h, the plates were centrifuged at 1500 rpm for 5 min. About 80 µL of the supernatant was carefully pipetted to a new 96-well microplate and read at 545 nm to measure the amount of hemoglobin released. The positive control was 1% Triton X-100, and the negative control was saline. The percentage of hRBC lysis was calculated based on the hemoglobin released.

S. aureus USA300 = type: cell-based, Staphylococcus aureus
Protocol: (§1) The antibiotic-resistant pathogens used in this study include the Gram-positive bacteria Enterococcus faecium V286-17 and Staphylococcus aureus USA300 LAC and the Gram-negative bacteria Klebsiella pneumoniae E406-17, Acinetobacter baumannii B28-16, Pseudomonas aeruginosa E411-17, and Escherichia coli E423-17. All bacteria were cultivated in tryptic soy broth (TSB) at 37 °C, 220 rpm.
(§2) The antibacterial activity of peptides was evaluated using a standard broth microdilution protocol with minor modifications. In brief, peptides were made at various concentrations, 10 μL per well in a 96-well polystyrene microplate. Logarithmic phase bacterial cultures (i.e., optical density (OD) at 600 nm ≈ 0.5) were diluted to 0.001 OD, and aliquots of 90 μL were added to each well. Untreated bacterial culture and medium were included as positive and negative controls, respectively. Plates were incubated at 37 °C overnight and read at 630 nm using a ChroMate Microplate Reader (Awareness Technology, Palm City, FL, USA). […] Our previously designed peptide 17BIPHE2 [32] was included as a positive control, and RI-10, a peptide without antibacterial activity in rich media, was utilized as a negative control.

E. faecium V284-17 = type: cell-based, Enterococcus faecium
[1] = system: A. baumannii B28-16 preformed biofilms; assay: Disruption of preformed biofilms (XTT); type: cell-based, Acinetobacter baumannii; conditions: for Biofilm disruption: 72 h preformed biofilms, peptide 64 μM, highest concentration tested; for Disruption of 48 h biofilms: biofilms established for 48 h; for Disruption of 48 h biofilms / Reduction of 24 h biofilms: 24 h treatment; for Reduction of 24 h biofilms: biofilms established in 24 h
Protocol: (§3) The antibiofilm activities of peptides against the preformed biofilms of A. baumannii B28-16 and S. aureus USA300 LAC were evaluated as follows. Bacteria in the logarithmic growth phase were adjusted to a cell density of 10^5 colony forming unit (CFU)/mL. Two hundred microliter cells were seeded into each well of the 96-well plates. The plates were incubated at 37 °C to allow for the formation of biofilm for 24, 48, and 72 h, respectively. The planktonic cells were then removed, followed by a wash. The biofilms were then treated with 20 µL of 10× two-fold diluted peptides and 180 µL of fresh TSB media for 24 h at 37 °C. Cultures treated with water without peptide served as the positive control, and media treated with water was used as the negative control. To quantify the antibiofilm activity of the peptides, the XTT [2, 3-bis (2-methyloxy-4-nitro-5-sulfophenyl)-2H-tertazolium-5-carboxanilide] assay staining method was used to quantitate the live cells. Absorbance was read at 450 nm using a ChroMate microliter plate reader. The percentage biofilm growth for the peptide was plotted by assuming 100% biofilm growth in untreated bacterial control wells. Data were represented as mean ± standard deviation (SD). The data are statistically significant at p < 0.05. Plots were generated using GraphPad Prism v7 (GraphPad Software, San Diego, CA, USA).

P. aeruginosa E411-17 = type: cell-based, Pseudomonas aeruginosa; conditions: for MIC: E411-17
Protocol: as §1, §2

S. aureus USA300 LAC [2] = assay: Membrane depolarization (DiBAC4(3)); type: cell-based, Staphylococcus aureus; conditions: DiBAC4(3) fluorescence; for Membrane depolarization ability (order, words): peptide 8 µM, similar trends at 16 and 32 µM
Protocol: The experiment was conducted as described. In brief, an overnight culture of S. aureus USA300 LAC was subcultured in a fresh TSB medium and grown to the exponential phase. Cells were spun using centrifugation and washed twice with PBS, and resuspended in twice the volume of PBS containing 25 mM glucose and incubated at 37 °C for 15 min. For membrane depolarization measurements, 500 nM (final concentration) of the dye DiBAC4 (3) (bis-(1,3- dibutylbarbituric acid) trimethine oxonol) (AnaSpec, San Jose, CA, USA) was added and vortexed gently. Aliquots of 90 μL of the energized bacteria solution were loaded to the wells, and the plate was fed into a FLUOstar Omega microplate reader. Fluorescence was read for 20 min at excitation and emission wavelengths of 485 and 520 nm, respectively, to get dye normalization. Then 10 μL of diluted peptide solutions were added and gently mixed. Fluorescence readings were recorded for 40 min, where Triton X-100 (0.1%) was used as a positive control.

E. coli E423-17 = type: cell-based, Escherichia coli
Protocol: as §1, §2

[3] = HPLC retention time (measure of peptide hydrophobicity); type: physicochemical; conditions: chromatographic, Waters C8 symmetry hydrophobic column, as described in ref 34; used as indicator of peptide hydrophobicity
Text: In the membrane-bound LL-37 structure determined by 3D NMR spectroscopy, a hydrophobic gap exists (Figure 1A). The location of a hydrophilic S9 on the hydrophobic surface of LL-37 splits the long helix into two hydrophobic domains (gold sticks). The SK-24 peptide we identified here corresponds to the long hydrophobic domain [26]. The amino acid sequence of SK-24, along with LL-37 and its derived antimicrobial peptides, is depicted in Figure 1B. Peptide parameters, including net charge, hydrophobic content, Boman index, GRAVY, hydrophobicity, and hydrophobic moment of each peptide, were calculated using online tools, such as the APD [8] and HeliQuest (Table 1). Except for the shortest RI-10 (net charge +3), LL-37 and its other derived peptides have net charges +5 or +6, above the average net charge (+3.3) of natural antimicrobial peptides registered in the APD [8, 35, 36]. Overall, the hydrophobic percentages (Pho) of these peptides calculated in the APD are proportional to the hydrophobicity and hydrophobic moment calculated by HeliQuest in Table 1. Of note, LL-37 has the highest net charge (+6) and Boman index but the lowest Pho%, GRAVY, and hydrophobic moment.
All peptides were chemically synthesized and purified to >95% (Genemed Synthesis, San Antonio, TX, USA). The quality of each peptide was determined based on mass spectrometry (MS) and high-performance liquid chromatography (HPLC). Peptide stock solutions were freshly made by solubilizing in autoclaved distilled water, and their concentrations were quantitated using UV spectroscopy based on the absorbance difference at 215 and 225 nm as described. Peptide retention time was measured on a Waters C8 symmetry hydrophobic column as described. Other chemicals were purchased from Sigma (St. Louis, MO, USA) unless specified.

K. pneumoniae E406-17 = type: cell-based, Klebsiella pneumoniae; conditions: for MIC: E406-17
Protocol: as §1, §2

[4] = system: S. aureus USA300 LAC preformed biofilms; conditions: S. aureus USA300 LAC and other clinical strains (USA200, USA400, Mu50); cited from earlier work
Protocol: Here, we compared the antibiofilm activity of SK-24 with that of GF-17, GI-20, and 17BIPHE2 against the 24 h preformed biofilms of S. aureus USA300. […] Only SK-24 a ...

A. baumannii B28-16 [5] = type: cell-based, Acinetobacter baumannii
Protocol: as §1, §2

[6] = system: S. aureus USA300 LAC preformed biofilms; assay: Disruption of preformed biofilms (XTT); type: cell-based, Staphylococcus aureus; conditions: for Antibiofilm effect on 24 h preformed biofilms: 24 h preformed biofilms of S. aureus USA300, XTT
Protocol: as §3

S. aureus USA300 LAC [7] = assay: Membrane permeabilization (propidium iodide); type: cell-based, Staphylococcus aureus; conditions: peptide 8 µM; propidium iodide fluorescence, 2 h, PBS, 37 °C
Protocol: (§4) Membrane permeabilization was evaluated as described. In brief, bacteria were inoculated and grown overnight. A second inoculation was made and let bacteria grow to the exponential phase. Bacteria were then spun, washed, and resuspended in the same volume of PBS. A series of peptide solutions (10×) was made via two-fold dilution in a 96-well plate (10 µL each). All wells were aliquoted with 2 µL of propidium iodide (20 µM), followed by adding 88 µL of S. aureus USA300 or A. baumannii B28-16 (OD600 ~0.11 in PBS). The plate was incubated at 37 °C with continuous shaking at 100 rpm in a FLUOstar Omega microplate reader (BMG Labtech Inc., Cary, NC, USA). Fluorescence was recorded every 5 min for 2 h with excitation and emission wavelengths of 485 and 620 nm. The data were analyzed by the vendor’s software using averaged values from duplicated experiments.

A. baumannii B28-16 [8] = assay: Membrane permeabilization (propidium iodide); type: cell-based, Acinetobacter baumannii; conditions: peptide 16 µM; propidium iodide fluorescence, 2 h, PBS, 37 °C
Protocol: as §4

[9] = 2% hRBCs in saline, 37 °C, tested 12.5–200 µM

Row | Molecule | HC50 (50% hemolytic concentration) (Human red blood cells; red cells of human) | MIC (S. aureus USA300) | MIC (E. faecium V284-17; V284-17) | Biofilm disruption [1] | Disruption of 48 h biofilms [1] | Reduction of 24 h biofilms [1] | MIC (P. aeruginosa E411-17) | Membrane depolarization ability (order, words) (S. aureus USA300 LAC [2]) | MIC (E. coli E423-17) | tHPLC (HPLC retention time) [3] | MIC (K. pneumoniae E406-17) | Disruption of 24 h preformed biofilms (words, found previously) [4] | MIC (A. baumannii B28-16 [5]) | Antibiofilm effect on 24 h preformed biofilms [6] | Membrane permeation (S. aureus USA300 LAC [7]) | further results
1 | GFKRIVQRIKDFLRNLV-NH2 (C-terminus assumed) [GF-17] | ~ 175 µM | 2 to 4 µM | 2 µM | 30–50% | dose-dependent biofilm disruption | dose-dependent manner | 16 µM | GI-20 > 17BIPHE2 > GF-17~SK-24 > LL-37 | 16 µM | 12.197 min | >32 µM | highly effective | 4 µM | antibiofilm effect in a dose-dependent manner |  | 
2 | SKEKIGKEFKRIVQRIKDFLRNLV-NH2 [SK-24] | greater than 200 µM |  |  | ~ 70% | dose-dependent biofilm disruption | dose-dependent manner | >32 µM | GI-20 > 17BIPHE2 > GF-17~SK-24 > LL-37 | 16 µM | 12.291 min | ≥32 µM |  |  | antibiofilm effect in a dose-dependent manner | weakly permeated | Effect on growth at 32 μM (P. aeruginosa E411-17; P. aeruginosa E411-17, peptide 32 μM): poor effect; Membrane depolarization, dose dependence (S. aureus USA300 LAC [2]; peptide 4, 8, 16 and 32 µM): dose-dependent manner; Effect on growth at 32 μM (K. pneumoniae E406-17; K. pneumoniae E406-17, peptide 32 μM): poor effect; Staphylococcal biofilm remaining (reduced to) ([6]; 24 h preformed biofilms, peptide 32 μM, relative to untreated control = 100%): ~ 25%
3 | GIKEFKRIVQRIKDFLRNLV-NH2 [GI-20] | ~ 160 µM | 2 to 4 µM | 2 µM | 30–50% | only worked at 64 μM | dose-dependent manner | >32 µM | GI-20 > 17BIPHE2 > GF-17~SK-24 > LL-37 | 32 µM | 12.681 min | >32 µM |  | 8 µM | antibiofilm effect in a dose-dependent manner | more powerful | Membrane permeation (A. baumannii B28-16 [8]): superior to SK-24
4 | CC[C@H](C)[C@H](NC(=O)[C@H](CCCCN)NC(=O)[C@H](CCC(=O)O)NC(=O)[C@H](CCCCN)NC(=O)[C@H](CO)NC(=O)[C@H](CCCCN)NC(=O)[C@H](CCCNC(=N)N)NC(=O)[C@H](Cc1ccccc1)NC(=O)[C@H](Cc1ccccc1)NC(=O)[C@H](CC(=O)O)NC(=O)CNC(=O)[C@H](CC(C)C)NC(=O)[C@@H](N)CC(C)C)C(=O)NCC(=O)N[C@@H](CCCCN)C(=O)N[C@@H](CCC(=O)O)C(=O)N[C@@H](Cc1ccccc1)C(=O)N[C@@H](CCCCN)C(=O)N[C@@H](CCCNC(=N)N)C(=O)N[C@H](C(=O)N[C@H](C(=O)N[C@@H](CCC(N)=O)C(=O)N[C@@H](CCCNC(=N)N)C(=O)N[C@H](C(=O)N[C@@H](CCCCN)C(=O)N[C@@H](CC(=O)O)C(=O)N[C@@H](Cc1ccccc1)C(=O)N[C@@H](CC(C)C)C(=O)N[C@@H](CCCNC(=N)N)C(=O)N[C@@H](CC(N)=O)C(=O)N[C@@H](CC(C)C)C(=O)N[C@H](C(=O)N1CCC[C@H]1C(=O)N[C@@H](CCCNC(=N)N)C(=O)N[C@H](C(=O)N[C@@H](CCC(=O)O)C(=O)N[C@@H](CO)C(=O)O)[C@@H](C)O)C(C)C)[C@@H](C)CC)C(C)C)[C@@H](C)CC [LL-37] |  |  |  |  |  |  |  | GI-20 > 17BIPHE2 > GF-17~SK-24 > LL-37 |  | 12.548 min |  | neither LL-37 nor RI-10 was able to disrupt |  |  |  | HC50 (50% hemolytic concentration) (Human red blood cells; [9]): ~ 175 µM; Hemolytic activity (Human red blood cells; [9]): no hemolysis below 100 µM; Hemolysis (Human red blood cells; peptide 200 µM, 2% hRBCs in saline, 37 °C, read at 545 nm): 70%; MIC (E. faecium V284-17; E. faecium V284-17, 100% TSB, 37 °C overnight, read at 630 nm): 32 µM (≈ 144 µg/mL); Disruption of preformed biofilms ([1]; biofilms formed for 24, 48 and 72 h, peptide at 8, 16, 32 or 64 μM for 24 h): unable to disrupt
